For one experiment, the system named is Staphylococcus aureus. Description: Inhibition of methicillin-resistant Staphylococcus aureus ATCC 43300 PBP5 assessed as residual activity at 1 mM after 4 hrs by fluorescence spectroscopy in presence of fluorescein-labeled ampicillin.
For a further experiment, the system named is Actinomadura sp. R39. Kind of experiment: Inhibition of Actinomadura R39 D,D-peptidase assessed as inhibition of hydrolysis of thiolester substrate S2d measured as residual activity at 100 uM after 1 hr by Ellman's method. A general note: In Ellman's method for cholinesterases, released thiocholine reacts with DTNB.
Another experiment deals with Enterococcus faecium. Description: Inhibition of Enterococcus faecium D63r PBP5 assessed as assessed as residual activity at 1 mM after 4 hrs by fluorescence spectroscopy in presence of fluorescein-labeled ampicillin.

Here are results for 15 compounds from ChEMBL document CHEMBL3217566, “Unprecedented inhibition of resistant penicillin binding proteins by bis-2-oxoazetidinyl macrocycles” (Medchemcomm, 2012).

SMILES strings stand for the structures. Where only a bound is given, the exact number is not on record here.

With `CCCCC(=O)N1C[C@H](NC(=O)CCCC/C=C/CCCCC(=O)N[C@H]2CN(C(=O)CCCC)C2=O)C1=O`, the Activity in the experiment on Staphylococcus aureus worked out at 89%; in the experiment on Actinomadura sp. R39, 90%; with Enterococcus faecium, 5%.

For the compound `CCCCC(=O)N1C[C@H](NC(=O)CCCCCCCCCCC(=O)N[C@H]2CN(C(=O)CCCC)C2=O)C1=O`, the figures for the Activity with Staphylococcus aureus, in the experiment with Actinomadura sp. R39 and in the experiment with Enterococcus faecium were 90%, 89% and 3%, respectively.

Regarding `CCCCCCC(=O)N[C@H]1CN(C(=O)CCCCCCC(=O)N2C[C@H](NC(=O)CCCCCC)C2=O)C1=O`, the Activity in the experiment with Staphylococcus aureus stood at 99%; with Actinomadura sp. R39, 74%; with Enterococcus faecium it was 10%.

Take `C=CCCCCC(=O)N[C@H]1CN(C(=O)CCCCC=C)C1=O`: the Activity is 81% in the experiment on Staphylococcus aureus, 80% with Actinomadura sp. R39 and 23% in the experiment with Enterococcus faecium.

Consider `CCCCCCC(=O)N[C@H]1CN(C(=O)CC/C=C/CCC(=O)N2C[C@H](NC(=O)CCCCCC)C2=O)C1=O`, for which the Activity amounted to 100% in the experiment on Staphylococcus aureus, 100% in the experiment with Actinomadura sp. R39 and 0% in the experiment on Enterococcus faecium.

For the compound `C=CCCCCC(=O)N1C[C@H](NC(=O)CCC=C)C1=O`, the Activity is 77% in the experiment on Staphylococcus aureus, 72% in the experiment on Actinomadura sp. R39 and 50% with Enterococcus faecium.

Turning to `C=CCCCC(=O)N1C[C@H](NC(=O)CCC=C)C1=O`, the figures for the Activity in the experiment with Staphylococcus aureus, in the experiment on Actinomadura sp. R39 and with Enterococcus faecium were 100%, 99% and 39%, respectively.

Take `C=CCCC(=O)N[C@H]1CN(C(=O)CCC=C)C1=O`: the Activity was 79% with Staphylococcus aureus, 72% with Actinomadura sp. R39 and above 100% in the experiment on Enterococcus faecium.

Take `C=CCCCCC(=O)N[C@H]1CN(C(=O)CCC=C)C1=O`: the Activity in the experiment on Staphylococcus aureus worked out at 89%; in the experiment on Actinomadura sp. R39, 91%; in the experiment on Enterococcus faecium it was 14%.

As for `C=CCCCC(=O)N[C@H]1CN(C(=O)CCCC=C)C1=O`, the Activity is 100% with Staphylococcus aureus, 90% in the experiment on Actinomadura sp. R39 and 17% with Enterococcus faecium.

As for `C=CCCCCC(=O)N[C@H]1CN(C(=O)CCCC)C1=O`, the Activity came to 100% with Staphylococcus aureus, 97% in the experiment with Actinomadura sp. R39 and 5% with Enterococcus faecium.

For `C=CCCCCC(=O)N1C[C@H](NC(=O)CCCC=C)C1=O`, the Activity in the experiment on Staphylococcus aureus stood at 82%; in the experiment on Actinomadura sp. R39 it was 86%; with Enterococcus faecium, 15%.

On to `C=CCCCCC(=O)N[C@H]1CN(C(=O)CCCC=C)C1=O`, for which the values for the Activity in the experiment with Staphylococcus aureus, in the experiment on Actinomadura sp. R39 and in the experiment with Enterococcus faecium were 85%, 74% and 21%, respectively.

Consider `C=CCCCC(=O)N[C@H]1CN(C(=O)CCC=C)C1=O`, for which the Activity was determined as 93% with Staphylococcus aureus, 98% in the experiment on Actinomadura sp. R39 and 14% in the experiment on Enterococcus faecium.

On to `C=CCCC(=O)N1C[C@H](NC(=O)CCCCCC)C1=O`, for which the Activity in the experiment on Staphylococcus aureus was determined as 100%; in the experiment with Actinomadura sp. R39, 92%; with Enterococcus faecium, 6%.
